# Like-named read-outs stand apart in the source and are kept apart here.
# How the values were obtained:
# [1] = Body weight change and side effects during 14 days of oral treatment in nude mice; assay type: in vivo, BALB/c nu/nu mice
# Procedure: (§1) In vivo anti-cancer activity of the compounds according to the present invention, I-3, I-6, I-8, I-16, I-19, I-22, I-23, and I-24, was measured in mice to evaluate in vivo efficacy by oral administration. Specifically, the nude mice were divided into test groups and control groups, each consisting of 4 mice. In vivo efficacy was evaluated by measuring body weight, tumor volume, and tumor weight.
# (§2) Female nude mice 6 weeks old (BALB/c nu/nu, Charles River) were bred in germ-free breeding rooms maintained at constant temperature and humidity. After the nude mice were anesthetized, HCT116 colon cancer cells were implanted at a count of […] cells/mouse into the rectum in BALB/c nu/nu mice and then the incisions were closed with surgical clips. The size of tumor was measured by a caliper. When the size of transplanted tumor reached to 50˜60 mm^3, the above compounds according to the present invention were administered. In more detail, after the above compounds in test groups were dissolved at concentration of 20 mg/kg in a solvent containing 80% of physiological saline, 10% of DMAC (dimethylacetamide), and 10% Tween 80 (hereinafter referred to as ‘Solvent A’), […] of dissolved compounds were orally administered once a day. Mice in control groups were treated with […] of Solvent A alone once daily.
# (§3) Tumor volume and body weight were measured to identify in vivo anti-cancer activity of the compounds according to the present invention by repetitive oral administration. Tumor volume and tumor growth inhibition (TGI) in Table 2 were calculated according to the below Mathematic FIG. 1 and FIG. 2, respectively. Tumor growth inhibition was converted to a percentage in Table 2.
# Moreover, severe side effects and statistically significant changes of body weight in all mice treated compounds were not shown for 14 days, comparing to control groups treated with vehicle. (Table 3)
# GAPDH = GAPDH expression level (internal control) in western blot, HCT116 cells; assay type: cell-based, human; conditions: HCT116, hypoxia 1% O2, 0-30 μM, 12 hours, FIG. 1
# Procedure: (§4) First, HCT116 human colon cancer cells (ATCC #CCL-247) were plated at the concentration of 2×10^5 cells/ml. After 24 hours, the cells were incubated under hypoxia (1% O2, 94% N2, and 5% CO2, expressed as 1% O2 in FIG. 1) for 4 hours in order to induce HIF-la accumulation. Cells were treated with the compounds at various concentrations (0, 3, 10, 20, and 30 μM) for 12 hours under hypoxia. The cells were then harvested, and lysed in RIPA buffer to obtain nuclear extracts. Cells grown at 20% O2 (normoxia) were used as control groups to compare HIF-1α-mediated gene expression under each condition. 30 μg of the nuclear extracts per sample was separated by SDS-PAGE (sodium dodecyl sulfate-polyacrylamide gel electrophoresis), and was then transferred to PVDF (polyvinylidene fluoride membrane) membranes. After membranes were probed with HIF-1α antibodies (R&D System), HIF-1α proteins were detected with HRP-conjugated secondary antibodies (Amersham-Pharmacia). GAPDH (Glyceraldehyde 3-phosphate dehydrogenase) was used as an internal control for loading in western blot analysis.
# [2] = system: HIF-1α-mediated HRE transcriptional activity; assay: Assay for inhibition of HIF-1α-mediated transcriptional activity (HRE reporter assay); assay type: cell-based, human; conditions: Homo sapiens, HCT-116, HCT116 cells, 12 hours under hypoxia (1% O2), read-out: Inhibitory activity against HIF-1α (10 μM)
# Procedure: <Experiment 1> Assay for Inhibition of HIF-1α-Mediated Transcriptional Activity (HRE Reporter Assay)
# The compounds can be developed as anti-cancer drugs, because the compounds inhibiting HIF-1α-mediated HRE transcriptional activity induced by hypoxia can suppress the growth and metastasis of cancer.
# Inhibitory effects of the compounds according to the present invention, from Formula I-1 to I-42, on HIF-1α-mediated transcriptional activity were evaluated using this assay. pGL3-HRE-luciferase vector was constructed as follows. Six copies of HRE (Hypoxia Responsive Element, 5′-ACGTG-3′) from human VEGF genes were inserted into the multi-cloning site of a pGL3-basic vector (Promega). A luciferase gene was used as a reporter gene.
# In detail, HCT116(ATCC #CCL-247) human colon cancer cells were seeded in 48-well cell culture plates. The cells were co-transfected with 25 ng of pGL3-HRE-luciferase and 2.5 ng of Renila control vectors using Polyfect reagent next day. After 24 hours of incubation, the cells were incubated for an additional 4 hours with replaced cell culture media. The cells were treated with various concentrations (0, 1, 3, 5, 10, and 20 μM) of the above compounds according to the present invention and incubated for 12 hours under hypoxia (1% O2, 94% N2, and 5% CO2). The luciferase assay was performed using a dual-luciferase reporter assay system (Promega). After cell lysate preparation with RIPA buffer, induced luciferase activity under hypoxic conditions was determined to examine inhibitory effects of the compounds according to the present invention, from Formula I-1 to I-42, on HIF-1α-mediated transcriptional activity.
# HIF-1α = molecular target: T1, HIF-1α (Homo sapiens, UniProt Q16665); assay: Inhibition of hypoxia-induced HIF-1α accumulation, western blot in HCT116 cells; assay type: cell-based; conditions: HCT116, hypoxia 1% O2, 0-30 μM, 12 hours, FIG. 1
# T1 construct: endogenous in cells; host or cells: HCT116 human colon cancer cells (ATCC #CCL-247)
# Procedure: <Experiment 2> In Vitro Studies for Inhibition of Hypoxia-Induced HIF-1α Accumulation
# Inhibition of HIF-1α accumulation by the compounds according to the present invention was determined in HCT116 human colon cancer cells. In particular, western blot analysis was used to identify the compounds, I-3, I-6, I-8, I-16, I-19, I-22˜I-24, and I-27˜I-36, which inhibited HIF-1α accumulation under hypoxia.
# as §4
# [3] = system: HCT116 colon cancer cells; assay: In vivo anti-cancer activity by oral administration, HCT116 tumor in nude mice; set-up: species or system BALB/c nu/nu mice; conditions: for inhibition in vivo at 20 mg/kg: Mus musculus
# Procedure: <Example 4> In Vivo Anti-Cancer Activity of Compounds by Oral Administration
# as §1, §2, §3
# [4] = day 0, 20 mg/kg oral once a day
# [5] = day 3, 20 mg/kg oral once a day
# [6] = day 5, 20 mg/kg oral once a day
# [7] = day 7, 20 mg/kg oral once a day
# [8] = day 10, 20 mg/kg oral once a day
# [9] = day 12, 20 mg/kg oral once a day
# [10] = day 14, 20 mg/kg oral once a day
# [11] = HCT-116, 72 h, day 3, 20 mg/kg oral once a day, read-out: TGI (tumor growth inhibition), tumor volume
# [12] = HCT-116, 120 h, day 5, 20 mg/kg oral once a day, read-out: TGI (tumor growth inhibition), tumor volume
# [13] = HCT-116, 168 h, day 7, 20 mg/kg oral once a day, read-out: TGI (tumor growth inhibition), tumor volume
# [14] = HCT-116, 240 h, day 10, 20 mg/kg oral once a day, read-out: TGI (tumor growth inhibition), tumor volume
# [15] = HCT-116, 288 h, day 12, 20 mg/kg oral once a day, read-out: TGI (tumor growth inhibition), tumor volume
# [16] = HCT-116, 336 h, day 14, 20 mg/kg oral once a day, read-out: TGI (tumor growth inhibition), tumor volume
# [17] = HCT-116, 336 h, day 14, 20 mg/kg oral once a day, read-out: TGI (tumor growth inhibition), tumor weight
# T1 sequence (Q16665 whole entry): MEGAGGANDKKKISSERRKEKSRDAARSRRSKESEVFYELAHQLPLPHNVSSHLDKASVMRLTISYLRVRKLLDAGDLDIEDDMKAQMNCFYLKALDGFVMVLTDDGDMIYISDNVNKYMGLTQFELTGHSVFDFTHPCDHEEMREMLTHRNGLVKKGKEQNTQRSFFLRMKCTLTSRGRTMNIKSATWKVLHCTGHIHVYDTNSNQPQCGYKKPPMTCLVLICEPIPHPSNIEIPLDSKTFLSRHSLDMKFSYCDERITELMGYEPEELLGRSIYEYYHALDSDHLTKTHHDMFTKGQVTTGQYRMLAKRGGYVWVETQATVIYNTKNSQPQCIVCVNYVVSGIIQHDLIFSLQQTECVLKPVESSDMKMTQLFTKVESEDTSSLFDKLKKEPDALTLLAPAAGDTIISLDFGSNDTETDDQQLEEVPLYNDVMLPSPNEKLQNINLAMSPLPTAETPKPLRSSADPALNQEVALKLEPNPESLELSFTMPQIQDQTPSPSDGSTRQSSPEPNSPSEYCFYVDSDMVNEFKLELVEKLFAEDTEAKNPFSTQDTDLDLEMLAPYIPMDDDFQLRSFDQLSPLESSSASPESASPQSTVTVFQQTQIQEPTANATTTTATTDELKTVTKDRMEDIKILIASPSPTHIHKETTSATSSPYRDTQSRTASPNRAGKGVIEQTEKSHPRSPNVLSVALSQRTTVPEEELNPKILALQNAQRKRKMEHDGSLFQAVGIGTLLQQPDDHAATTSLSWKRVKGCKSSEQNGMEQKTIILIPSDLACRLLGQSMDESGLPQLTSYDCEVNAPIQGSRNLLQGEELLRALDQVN
SMILES,"Body weight change [1, 4] [%]","Body weight change [1, 5] [%]","Body weight change [1, 6] [%]","Body weight change [1, 7] [%]","Body weight change [1, 8] [%]","Body weight change [1, 9] [%]","Body weight change [1, 10] [%]",inhibition at 10 µM [2] [%],"inhibition in vivo at 20 mg/kg [3, 11] [%]","inhibition in vivo at 20 mg/kg [3, 12] [%]","inhibition in vivo at 20 mg/kg [3, 13] [%]","inhibition in vivo at 20 mg/kg [3, 14] [%]","inhibition in vivo at 20 mg/kg [3, 15] [%]","inhibition in vivo at 20 mg/kg [3, 16] [%]","inhibition in vivo at 20 mg/kg [3, 17] [%]","Tumor volume [3, 5] [mm^3]","Tumor volume [3, 6] [mm^3]","Tumor volume [3, 7] [mm^3]","Tumor volume [3, 8] [mm^3]","Tumor volume [3, 9] [mm^3]",further results
"CN1CCN(C(=O)CCOc2ccc(C34CC5CC(CC(C5)C3)C4)cc2)CC1 [Compound I-8, 3-(4-(Adamantan-1-yl)phenoxy)-1-(4-methylpiperazin-1-yl)propan-1-one]",100.0 ± 0.0,102.2 ± 2.8,103.4 ± 2.8,102.6 ± 2.2,102.9 ± 1.5,101.9 ± 1.0,101.7 ± 2.6,51 to 75,27.6,29,30,29.3,28.7,29.3,31,24.6 ± 5.1,65.5 ± 9.0,122.2 ± 7.9,184.3 ± 10.0,319.7 ± 22.0,"GAPDH expression levels (GAPDH): did not affect GAPDH expression levels; HIF-1α degradation (HIF-1α): promoted HIF-1α degradation; inhibitory effects on HIF-1α accumulation (HIF-1α): significant inhibitory effects on HIF-1α accumulation; Tumor volume [3, 10]: 471.1 ± 29.0 mm^3; Tumor weight [3, 10]: 1634.6 ± 357.2 mg"
"CN(C)CCNC(=O)C(C)(C)Oc1ccc(C23CC4CC(CC(C4)C2)C3)cc1 [Compound I-24, 2-(4-(Adamantan-1-yl)phenoxy)-N-(2-(dimethylamino)ethyl)-2-methylpropanamide]",100.0 ± 0.0,103.5 ± 3.0,104.0 ± 3.6,103.6 ± 3.6,105.0 ± 4.0,104.9 ± 4.1,106.5 ± 4.5,76 to 100,19.5,18.4,15.4,15.8,14.3,14.4,13.9,38.1 ± 6.4,93.8 ± 21.0,176.8 ± 27.6,341.7 ± 58.8,569.1 ± 72.4,"Tumor volume [3, 10]: 990.1 ± 140.3 mm^3; Tumor weight [3, 10]: 3685.5 ± 357.5 mg"
"Cc1cc(C23CC4CC(CC(C4)C2)C3)ccc1OCC(=O)N1CC[N+](C)(C)CC1.[I-] [Compound I-16, 4-(2-(4-(Adamantan-1-yl)-2-methylphenoxy)acetyl)-1,1-dimethylpiperazin-1-ium iodide]",100.0 ± 0.0,104.1 ± 1.6,104.2 ± 2.8,104.3 ± 1.9,105.8 ± 4.2,103.2 ± 3.6,102.3 ± 3.7,51 to 75,28.6,27.8,27.9,28.8,28.6,29.2,30.2,24.2 ± 6.1,66.7 ± 14.2,125.8 ± 13.6,185.7 ± 20.2,320.4 ± 33.9,"GAPDH expression levels (GAPDH): did not affect GAPDH expression levels; HIF-1α degradation (HIF-1α): promoted HIF-1α degradation; inhibitory effects on HIF-1α accumulation (HIF-1α): significant inhibitory effects on HIF-1α accumulation; Tumor volume [3, 10]: 471.8 ± 26.0 mm^3; Tumor weight [3, 10]: 1655.7 ± 288.4 mg"
"CN1CCN(C(=O)C(C)(C)Oc2ccc(C34CC5CC(CC(C5)C3)C4)cc2)CC1 [Compound I-23, 2-(4-(Adamantan-1-yl)phenoxy)-2-methyl-1-(4-methylpiperazin-1-yl)propan-1-one]",100.0 ± 0.0,100.8 ± 1.1,101.0 ± 1.6,100.9 ± 0.7,101.9 ± 1.1,101.6 ± 1.3,102.0 ± 2.0,76 to 100,13.5,14.8,12.7,13.1,13.1,14.6,14.5,40.9 ± 8.2,98.0 ± 13.9,182.4 ± 19.9,352.7 ± 53.6,577.3 ± 74.1,"Tumor volume [3, 10]: 987.6 ± 143.7 mm^3; Tumor weight [3, 10]: 3659.9 ± 434.8 mg"
